Reference: article PMC6383986, “Fragment-Based Covalent Ligand Screening Enables Rapid Discovery of Inhibitors for the RBR E3 Ubiquitin Ligase HOIP” (Journal of the American Chemical Society, 2019)

System: E1, UbcH5c, UbcH7, HOIL-1L, RNF144A, HHARI, TRIAD3A RBR domains, NEDD4L, E6AP, OTULIN, CYLD-1
Test: LC-MS-based enzyme counter screen
Type: binding
Details: 10-fold stoichiometric excess, 24 h incubation
Description: 0.1% formic acid in water. The samples were analyzed on a Q Exactive MS (Thermo Fisher) coupled to an Easy-nLC chromatographic system (Thermo Fisher) with a nano ESI source (Thermo Fisher). Each sample (2 µL) was injected and trapped on a C18 Acclaim pepMap 100 enrichment column (75 µm id × 2 cm, 3 µm nanoviper, Thermo Fisher). The samples were transferred to a C18 Acclaim PepMap RSLC analytical column (75 µm id × 15 cm, 2 µm, Thermo Fisher) at 300 nL/min. Mobile phase A (0.1% Formic acid in water, v/v); mobile phase B (0.1% […]
min (70-95% B), 56-61 min (95% B). The nanospray ionisation source was operated in the positive mode with spray voltage set at 2 kV, and heated capillary at 250 °C. The Q Exactive was operated in the data dependent mode and the top 15 most intense ions were subjected to HCD fragmentation with normalised collision energy set at 26%. The MS1 scans were performed at a resolution of 70 000 from 400-1600 m/z, automatic gain control (AGC) value 3 e6, maximum injection time 100 ms. […]
Compounds (1) and (5) were screened against E1, the E2s UbcH5c and UbcH7, the RBR domains of the E3 ligases HOIP, HOIL-1L, RNF144A, HHARI and TRIAD3A, the HECT E3 ligases NEDD4L and E6AP, and the DUBs OTULIN and CYLD-1. […] The samples were analyzed after 0.5 and 24 h incubation. […]

**Q.** With `COC(=O)/C=C/CNC(=O)c1cc2c([nH]c1=O)CCC2` [Compound 5] as the molecule, how does the “labeling of all other proteins screened” value read?
**A.** < 40%
